From US20030087395A1, “Cardiotrophin-like cytokine” (Human Genome Sciences, Inc., priority 1997, published 2003)

Assays:
M1 cells [1] = assay: Protein tyrosine phosphorylation after anti-gp130 immunoprecipitation; format: cell-based; conditions: M1 cells treated with CLC or LIF supernatant; band of apparent molecular mass 32 kDa
Procedure: Because of the wide range of known factors capable of stimulating tyrosine kinase activity, identifying whether CLC or a molecule induced by CLC is capable of activating tyrosine kinase signal transduction pathways is of interest. Therefore, the following protocol is designed to identify such molecules capable of activating the tyrosine kinase signal transduction pathways.
Seed NIH-3T3 cells in 15 cm^2 cell culture plates in DMEM supplemented with Pen/Strep, 10% FBS, 25 mM Hepes. […] At the point the experiment begins, the cells should be 80-90% confluent. Collect M1 cells in 50 ml tube and centrifuge 1000 rpm for 5 min. Resuspend the cell pellet in “quiescing medium” which is RPMI supplemented with Pen/Strep, glutamine. (It is important to note that quiescing medium contains neither serum nor growth factors.) Centrifuge again at 1000 rpm for 5 min to wash the cells. Again, resuspend the cells in quiescing medium. Incubate the M1 cells in quiescing medium for 16 hours at 37° C.
Pre-warm quiescing medium (for Ml cells) and a metal tube rack to 37° C. Pre-cool quiescing media (for NIH-3T3 cells) and sterile Eppendorf tubes containing 0.5 ml of sample. […] Resuspend M1 cells to 5.0×10^7 cells per 0.5 ml quiescing media. Place all tubes on per warmed metal rack and leave at 37° C. until ready to begin. Add samples to these pre-aliquoted tubes. […]

STATS = conditions: numbers of the STATs activated; adapted from Schidler and Darnell review; cited from earlier work
M1 cells [2] = assay: M1 cell proliferation by BrdU incorporation; format: cell-based; conditions: dose of 100 μL, 72 hours
Procedure: The effect of CLC on cellular proliferation can be assayed in M1 cells by BrdU incorporation. 1×10^4 cells/100 μL are dispensed into 96-well cell culture plates and labeled with 10 μL BrdU. CLC is added to the cells at several doses (0, 5, 25, and 100 μL) and LIF is added to the cells as a positive control at a dose of 100 μL. The cells are allowed to grow for 72 hours at 37° C. The amount of BrdU incorporation is determined by the Cell Proliferation ELISA BrdU colorimetric kit (Boehringer Mannheim).

U937 cells = assay: GAS-SEAP/U937 assay identifying myeloid activity; format: cell-based; conditions: 100 Unit/ml; U937 GAS-SEAP; typically observed
Procedure: The following protocol is used to assess myeloid activity of CLC by determining whether CLC proliferates and/or differentiates myeloid cells. Myeloid cell activity is assessed using the GAS/SEAP/Neo construct produced in Example 6. Thus, factors that increase SEAP activity indicate the ability to activate the Jaks-STATS signal transduction pathway. The myeloid cell used in this assay is U937, a pre-monocyte cell line, although TF-1, HL60, or KG1 can be used.
To transiently transfect U937 cells with the GAS/SEAP/Neo construct produced in Example 6, a DEAE-Dextran method (Kharbanda, et. al., Cell Growth & Differentiation 5:259-265 (1994)) is used. First, harvest 2×10^7 U937 cells and wash with PBS. The U937 cells are usually grown in RPMI 1640 medium containing 10% heat-inactivated fetal bovine serum (FBS) supplemented with 100 units/ml penicillin and […] streptomycin.
Next, suspend the cells in 1 ml of 20 mM Tris-HCl (pH 7.4) buffer containing 0.5 mg/ml DEAE-Dextran, 8 ug GAS-SEAP2 plasmid DNA, 140 mM NaCl, 5 mM KCl, 375 μM Na2HPO47H2O, […], and 675 μM CaCl2. Incubate at 37° C. for 45 min.
Wash the cells with RPMI 1640 medium containing 10% FBS and then resuspend in 10 ml complete medium and incubate at 37° C. for 36 hr.
The GAS-SEAP/U937 stable cells are obtained by growing the cells in 400 μg/ml G418. […]

GAS or ISRE = conditions: element bound; adapted from Schidler and Darnell review; cited from earlier work
Jurkat T-cells = assay: Jurkat:GAS-SEAP screening assay for T-cell activity; format: cell-based; conditions: 100 Unit/ml, typically observed
Procedure: The following protocol is used to assess T-cell activity of CLC by determining whether CLC supernatant proliferates and/or differentiates T-cells. T-cell activity is assessed using the GAS/SEAP/Neo construct produced in Example 6. Thus, factors that increase SEAP activity indicate the ability to activate the Jaks-STATs signal transduction pathway. The T-cell used in this assay is Jurkat T-cells (ATCC Accession No. TIB-152), although Molt-3 cells (ATCC Accession No. CRL-1552) and Molt-4 cells (ATCC Accession No. CRL-1582) cells can also be used.
Jurkat T-cells are lymphoblastic CD4+ Th1 helper cells. In order to generate stable cell lines, approximately 2 million Jurkat cells are transfected with the GAS-SEAP/neo vector using DMRIE-C (Life Technologies; transfection procedure described below). The transfected cells are seeded to a density of approximately 20,000 cells per well and transfectants resistant to 1 mg/ml geneticin selected. Resistant colonies are expanded and then tested for their response to increasing concentrations of interferon gamma.
Specifically, the following protocol will yield sufficient cells for 75 wells containing 200 μl of cells. Thus, it is either scaled up, or performed in multiple to generate sufficient cells for multiple 96 well plates. Jurkat cells are maintained in RPMI+10% serum with 1% Pen-Strep. […]

LIF: leukemia inhibitory factor, IL-6 family cytokine used as positive control for CLC [reference compound]
band of tyrosine-phosphorylated protein in cell extracts (M1 cells [1]): produced a band of phosphorylated protein | STATS (STATS): 1,3 | inhibition of M1 cell proliferation with respect to the negative control (M1 cells [2]): 4.8 fold

interferon gamma: positive control known to activate Jurkat T cells and U937 cells [reference compound]
induction of SEAP in positive control wells (U937 cells): Over 30 fold | GAS or ISRE (GAS or ISRE): GAS | induction of SEAP in positive control wells (Jurkat T-cells): Over 30 fold | STATS (STATS): 1
